From PMC11956004 (2025)
Starred links: 1 amine or outer side, 2 acyl side, 3 side chain; linkers in the order of their positions; H or OH if unused. Positions of bridges follow the written chain, without caps; N, C: chain ends. Non-standard residues stand in square brackets, D forms with d. Residues, ends and D or L forms follow the SMILES beside them. Chains are numbered I, II in the order given. Actinocin(9to1) = Cc1c2oc3c(C)ccc(C(=O)[*:1])c3nc-2c(C(=O)[*:2])c(N)c1=O; NMeV = CN[C@H](C(=O)O)C(C)C; Sar = CNCC(=O)O

Legend:
[1] = tested on: AAGCAAACGAAA (DNA, duplex) AAGCAAACGAAA/TTTCGTTTGCTT; assay: CD titration; conditions: Mg2+ 5 mM, Na+ (50 mM sodium cacodylate); 50 mM sodium cacodylate pH 7.2; 20 μM duplex, drug 1-4 equivalents
[2] = tested on: AAAGCACGAAAA (DNA, duplex) AAAGCACGAAAA/TTTTCGTGCTTT; assay: CD titration; conditions: Mg2+ 5 mM, Na+ (50 mM sodium cacodylate); 50 mM sodium cacodylate pH 7.2; 20 μM duplex, drug 1-4 equivalents
[3] = tested on: d(AGCCGT)2 (DNA, duplex) AGCCGT/ACGGCT; assay: X-ray crystallography (1.57 Å); conditions: Mn2+ 3 mM, Li+ 30 mM, 25 mM MES pH 6.5, 3% PEG400, 20 °C
[4] = tested on: AAAGCAACGAAA (DNA, duplex) AAAGCAACGAAA/TTTCGTTGCTTT; assay: CD titration; conditions: Mg2+ 5 mM, Na+ (50 mM sodium cacodylate); 50 mM sodium cacodylate pH 7.2; 20 μM duplex, drug 1-4 equivalents
[5] = tested on: AAAAGCCGAAAA (DNA, duplex) AAAAGCCGAAAA/TTTTCGGCTTTT; assay: CD titration; conditions: Mg2+ 5 mM, Na+ (50 mM sodium cacodylate); 50 mM sodium cacodylate pH 7.2; 20 μM duplex, drug 1-4 equivalents
[6] = tested on: AAAAGCCGAAAA (DNA, duplex) AAAAGCCGAAAA/TTTTCGGCTTTT; assay: fluorescence quenching of Dox, Hill fit; conditions: Mg2+ 5 μM (so in the source); 50 μM Na cacodylate pH 7.3 (so in the source); 1 μM Dox alone, apparent; Kd decreases when ActD added

binding [1]	binding [2]	binding ([3]; ternary complex with doxorubicin, intercalated at G2pC3)	binding [4]	binding [5]	Kd [6]	binding ([3]; ternary complex with actinomycin D, intercalated at C4pG5)	SMILES
yes	yes	yes	yes	yes	–	–	Cc1c2oc3c(C)ccc(C(=O)N[C@@H]4C(=O)N[C@H](C(C)C)C(=O)N5CCC[C@H]5C(=O)N(C)CC(=O)N(C)[C@@H](C(C)C)C(=O)O[C@@H]4C)c3nc-2c(C(=O)N[C@@H]2C(=O)N[C@H](C(C)C)C(=O)N3CCC[C@H]3C(=O)N(C)CC(=O)N(C)[C@@H](C(C)C)C(=O)O[C@@H]2C)c(N)c1=O (I: T[dV]P[Sar][NMeV] / II: T[dV]P[Sar][NMeV]; ester I:1-I:C, II:1-II:C; linker I:N-II:N via Actinocin(9to1))
yes	yes	–	yes	yes	2.13 µM	yes	COc1cccc2c1C(=O)c1c(O)c3c(c(O)c1C2=O)C[C@@](O)(C(=O)CO)C[C@@H]3O[C@H]1C[C@H](N)[C@H](O)[C@H](C)O1
